Measured values taken from patent publication US20180163221A1, “TRANSGENIC PLANTS EXPRESSING TYPE 2C PROTEIN PHOSPHATASE ABSCISIC ACID (PP2CABA) PROTEINS AND USES THEREOF” (Academia Sinica, priority 2016, published 2018).

How the values were obtained:
[1] = test system: rice seedlings; settings: Chen et al. 2015; cited from earlier work
[2] = test system: PP2CABA promoter; experiment: GUS staining of transgenic rice carrying PP2CABA:GUS treated with ABA; format: in vivo, Oryza sativa; settings: 10 μM ABA for 1 day; basal meristem region in root tips, LR primordia and young leaves
Protocol: (§1) FIG. 3A to FIG. 3D include diagrams showing plants have higher PP2CABA expression under induction by ABA and abiotic stress and are expressed in meristematic tissues. […] Ten-day-old rice seedlings were treated with 5 μM ABA, 200 mM NaCl, dehydration on tissue papers, or 4° C. for 3 hours. Total RNAs were purified from shoots and roots, and subjected to quantitative RT-PCR analysis using gene specific primers. […] Ten-day-old WT rice seedlings were treated with various concentrations of ABA for 24 hours. Total RNAs were purified from roots, and subjected to quantitative RT-PCR analysis using PP2CABA-specific primers. […] Recombinant GST-PP2CABA, GST-PP2CABA (D100A), GST-ABI2, and GST proteins were expressed in E. coli, purified and reacted with a phosphor peptide substrate, RRApTVA, and phosphatase activities were determined by measuring released free phosphate. […] Ten-day-old seedlings of transgenic rice carrying PP2CABA:GUS were treated with (lower panel) or without (upper panel) 10 μM ABA for 1 day and then stained for GUS activity. Arrow indicates young leaves.
Tissues were placed in GUS assay buffer containing (0.1 M NaPO4 buffer pH 7.0, 10 mM EDTA, 0.1% Triton X-100, 0.5 mM potassium ferricyanide pH 7.0, and 1.0 mM X-glucuronide) and incubated overnight at 37° C. Vacuum aspiration was applied during initial 30 minutes. […]

[3] = test system: PP2CABA expression in roots; experiment: Quantitative RT-PCR of PP2CABA expression in roots of ABA-treated rice seedlings; format: in vivo, Oryza sativa; settings: various concentrations of ABA, 24 hours
Protocol: FIG. 3A to FIG. 3D include diagrams showing plants have higher PP2CABA expression under induction by ABA and abiotic stress and are expressed in meristematic tissues. […] Ten-day-old rice seedlings were treated with 5 μM ABA, 200 mM NaCl, dehydration on tissue papers, or 4° C. for 3 hours. Total RNAs were purified from shoots and roots, and subjected to quantitative RT-PCR analysis using gene specific primers. […] Ten-day-old WT rice seedlings were treated with various concentrations of ABA for 24 hours. Total RNAs were purified from roots, and subjected to quantitative RT-PCR analysis using PP2CABA-specific primers. […] Recombinant GST-PP2CABA, GST-PP2CABA (D100A), GST-ABI2, and GST proteins were expressed in E. coli, purified and reacted with a phosphor peptide substrate, RRApTVA, and phosphatase activities were determined by measuring released free phosphate. […]
Total RNA was purified from rice tissues using Trizol reagent (Invitrogen) and treated with RNase-free DNase I (Promega). […] For quantitative RT-PCR analyses, 5-μl of cDNA was mixed with primers and the 2× Power SYBR Green PCR Master Mix reagent (Roche) and applied to an ABI 7500 Real-Time PCR system (Applied Biosystems). The quantitative variation between different samples was evaluated by the Δ-Δ cycle threshold method, and the amplification of ubiquitin 5 was used as an internal control to normalize all data.

[4] = test system: genes essential for lignin and suberin biosynthesis; experiment: Quantitative RT-PCR of lignin and suberin biosynthesis genes in roots of ABA-treated WT rice; format: in vivo, Oryza sativa; settings: ABA 24 hours, except PAL and CAD
Excerpt: FIG. 9A to FIG. 9B include diagrams showing that ABA and PP2CABA up-regulating the expression of genes essential for lignin and suberin biosynthesis. […] Total RNA was purified from roots and subjected to quantitative RT-PCR analysis using gene specific primers.
Total RNA was purified from rice tissues using Trizol reagent (Invitrogen) and treated with RNase-free DNase I (Promega). The DNase-digested RNA sample was used for reverse transcription by Superscript III reverse transcriptase (Invitrogen). Samples, which served as cDNA stocks for PCR analysis, were stored at −70° C. RT-PCR analysis was performed in a 50-μl solution containing 5-μl cDNA stock using Taq DNA polymerase (Viogene). RT-PCR products were fractionated in a 1.5% agarose gel and visualized by ethidium bromide staining. All RT-PCR analyses were performed from at least two batches of RNA samples with similar results. For quantitative RT-PCR analyses, 5-μl of cDNA was mixed with primers and the 2× Power SYBR Green PCR Master Mix reagent (Roche) and applied to an ABI 7500 Real-Time PCR system (Applied Biosystems). The quantitative variation between different samples was evaluated by the Δ-Δ cycle threshold method, and the amplification of ubiquitin 5 was used as an internal control to normalize all data.

[5] = test system: rice roots; experiment: Histochemical staining of root sections for lignin (acriflavine) and suberin (fluorol yellow 088); format: in vivo, Oryza sativa; settings: 1 μM ABA, 3 days
Protocol: FIG. 10A to FIG. 10B include photos showing ABA and PP2CABA enhance the accumulation of lignin and suberin in cell walls of root peripheral layers and increase the root diameter. […] 1 μM ABA was added and seedlings were cultured for another 3 days. […] Roots at 1 cm above the apex were cross-sectioned and stained with acriflavine for lignin and fluorol yellow 088 for suberin. F, fluorescence image; T, transmission image; EP, epidermis; EX, exodermis; SC, sclerenchyma; CO, cortex. Scale bars=10 μm.
Methonal fixed roots were embedded in 5% agar and cut into 100 μm cross sections using a vibratome (DOSAKA DTK-1000). To check for autofluorescence, sections were viewed under a Zeiss Axiolmager Z1 fluorescence microscope with UV illumination using excitation filter G 365, chromatic beam splitter FT 395, and barrier filter LP 420. To check for lignin distribution, sections were stained with Acriflavine as described (Rocha et al., Front Plant Sci, 5:102 (2014)). Sections were imaged with a Zeiss LSM 510 META confocal microscope using a 488 nm laser line for excitation and a 505 to 550 nm band pass filter for emission. To check for suberin lamellae, sections were stained with Fluorol Yellow 088 as described (Brundrett et al., Biotech Histochem, 66:111 (1991); Landgraf et al., Plant Cell, 26:3403 (2014)). […]

[6] = test system: rice seedlings; experiment: Lateral root growth and root diameter of rice seedlings treated with ABA; format: in vivo, Oryza sativa; settings: 1 μM ABA
Protocol: FIG. 5A to FIG. 5B include photos showing plants have lower LR to PR ratio under induction of ABA and expression of PP2CABA. […] Ten-day-old seedlings of segregated wild type (WT) or pp2caba homozygous mutant were treated with (+) or without (−) 1 μM ABA for 3 days. Upper panel: morphology of roots. Lower panel: elongation of LR in boxed area (1 cm above the root tip) of roots in upper panel. LRP (marked by arrowheads) were initiated but not elongated in WT in the presence of ABA. […] Upper panel: morphology of roots. Lower panel: elongation of LR in boxed area (2 cm above the root tip) of roots in upper panel. LRP (marked by arrowheads) were initiated but not elongated in PP2CABA-overexpressing transgenic rice. S: seminal roots. C: crown roots.
The japonica rice (Oryza sativa cv Tainung 67) was used in this study. Plasmids were introduced into Agrobacterium tumefaciens strain EHA105, and rice transformation was performed as described (Chen et al., J Biol Chem, 277:13641 (2002)). The PP2CABA mutant seeds were obtained from the Taiwan Rice Insertional Mutant (TRIM) library (Hsing et al., Plant Molecular Biology, 63:351 (2007)). For hydroponic culture of rice seedlings, seeds were sterilized with 3% NaOCl for 30 minutes, washed extensively with distilled water, and germinated in petri dishes with wetted filter papers at 37° C. in the dark. After 48 h of incubation, germinated seeds were cultivated in Yoshida solution (Yoshida et al., International Rice Research Institute, 3 (1976)). The culture solution was replaced with fresh solution every 2 days. For observation of root growth in glass tube with phytagel, sterilized rice seeds were germinated on the surface of plate with Yoshida solution with 0.3% phytagel without sugar in the dark at 28° C. for about 48 hours. The germinated seedlings were then transplanted to glass tubes, which were 22 cm in height and 4.5 cm in diameter, and each filled with 150 ml Yoshida solution with 0.3% phytagel without sugar. 6 cm plastic dish was used to cover the glass tube and sealed by micropore tape to allow light penetration and gas exchange and prevent the medium from becoming contaminated by external microbes. Seedlings were grown under a 14-h-light/10-h-dark cycle in a 28° C. chamber.

[7] = molecular target: T1, phosphor peptide substrate RRApTVA
T1 chain: RRATVA

[8] = test system: phosphor peptide substrate, RRApTVA; experiment: Phosphatase activity assay of GST fusion proteins (released free phosphate); format: biochemical; settings: recombinant GST fusion protein from E. coli, synthetic phosphopeptide
Protocol: as §1
FIG. 6A to FIG. 6E include diagrams showing PP2CABA having two forms which are translated from the first and the second ATG codons. […] The 2nd ATG encodes the Met at amino acid residue 41. Amino acids 1-24 are putative signal peptide (SP). […] Protein loading is shown by the Ponceau S staining (lower panel). […]

## CC1=CC(=O)CC(C)(C)[C@@]1(O)/C=C/C(C)=C\C(=O)O [ABA, abscisic acid]
[1]
  ABA concentrations that enhance LR growth: ≤ 0.1 µM
  ABA concentrations that inhibit LR growth: ≥ 0.2 µM
[2]
  PP2CABA promoter activity (GUS): induced
[3]
  dose dependence of PP2CABA expression in roots: increased with ABA concentrations in a dose-dependent manner
[4]
  expression of lignin and suberin biosynthesis genes: induced
[5]
  accumulation of lignin and suberin in endodermal and exodermal cell layers in roots: enhanced the accumulation of lignin and suberin
[6]
  LR growth, WT compared with pp2caba: more severely inhibited in WT than in pp2caba mutant
[6]; 3 days, WT seedlings, maturation zones of roots
  LR growth in WT: completely inhibited
[6]; 3 days, pp2caba homozygous mutant, maturation zones of roots
  LR growth in pp2caba: stunted
[6]; both WT and pp2caba
  root diameter: enlarged

B1: GST-PP2CABA (protein)
chain: LSQGAEEEEDDGEVRLMGLAGEAAGSPGSGGGFSANGKFSYGYASSPGKRSSMEDFYDTRIDGVDGETVGLFGVFDGHGGARAAEFVKQNLFTNLIKHPKLFSDTKSAIAETYTSTDSELLKAETSHNRDAGSTASTAILVGDRLLVANVGDSRAVICRGGDAIAVSRDHKPDQSDERQRIEDAGGFVMWAGTWRVGGVLAVSRAFGDKLLKQYVVADPEIKEEVVDSSLEFLILASDGLWDVVTNEEAVAMVKPILDSEQAAKKLLQEASQRGSADNITCLVVRFLEQENHLPERPTNDQAS
[7]
  phosphatase activity (released free phosphate): GST-PP2CABA fusion protein expressed and purified from E. coli exhibited phosphatase activity

B2: GST-PP2CABA: GST-PP2CABA fusion protein expressed and purified from E. coli (protein)
chain: LSQGAEEEEDDGEVRLMGLAGEAAGSPGSGGGFSANGKFSYGYASSPGKRSSMEDFYDTRIDGVDGETVGLFGVFDGHGGARAAEFVKQNLFTNLIKHPKLFSDTKSAIAETYTSTDSELLKAETSHNRDAGSTASTAILVGDRLLVANVGDSRAVICRGGDAIAVSRDHKPDQSDERQRIEDAGGFVMWAGTWRVGGVLAVSRAFGDKLLKQYVVADPEIKEEVVDSSLEFLILASDGLWDVVTNEEAVAMVKPILDSEQAAKKLLQEASQRGSADNITCLVVRFLEQENHLPERPTNDQAS
modifications: left off: a dimerising Fc or GST
notes: GST-PP2CABA fusion protein expressed and purified from E. coli
[8]
  phosphatase activity: exhibited phosphatase activity

B3: GST-PP2CABA(25-327) (protein)
chain: LSQGAEEEEDDGEVRLMGLAGEAAGSPGSGGGFSANGKFSYGYASSPGKRSSMEDFYDTRIDGVDGETVGLFGVFDGHGGARAAEFVKQNLFTNLIKHPKLFSDTKSAIAETYTSTDSELLKAETSHNRDAGSTASTAILVGDRLLVANVGDSRAVICRGGDAIAVSRDHKPDQSDERQRIEDAGGFVMWAGTWRVGGVLAVSRAFGDKLLKQYVVADPEIKEEVVDSSLEFLILASDGLWDVVTNEEAVAMVKPILDSEQAAKKLLQEASQRGSADNITCLVVRFLEQENHLPERPTNDQAS
[7]
  phosphatase activity (released free phosphate): both of L form and S form of PP2CABA have phosphatase activities

B4: GST-PPCABA(41-327) (protein)
chain: MGLAGEAAGSPGSGGGFSANGKFSYGYASSPGKRSSMEDFYDTRIDGVDGETVGLFGVFDGHGGARAAEFVKQNLFTNLIKHPKLFSDTKSAIAETYTSTDSELLKAETSHNRDAGSTASTAILVGDRLLVANVGDSRAVICRGGDAIAVSRDHKPDQSDERQRIEDAGGFVMWAGTWRVGGVLAVSRAFGDKLLKQYVVADPEIKEEVVDSSLEFLILASDGLWDVVTNEEAVAMVKPILDSEQAAKKLLQEASQRGSADNITCLVVRFLEQENHLPERPTNDQAS
[7]
  phosphatase activity (released free phosphate): both of L form and S form of PP2CABA have phosphatase activities
[8]
  phosphatase activity: have phosphatase activities
